Assay results taken from ChEMBL document CHEMBL3739316, “Novel orally active inhibitors of β-1,3-glucan synthesis derived from enfumafungin” (Bioorg Med Chem Lett, 2015).
≈ marks a conversion by molar mass, not a printed value. Values belong to the compound of their own block, whether it stands above or below them.

What was measured:
Beta-1,3-glucan synthase = biological target: T1, Beta-1,3-glucan synthase (Candida albicans, UniProt O13383); test: Displacement of UDP-[3H]glucose from beta-1,3-glucan synthase in Candida albicans MY1055 microsomal membranes incubated for 2 hrs
T1 sequence (O13383 whole entry): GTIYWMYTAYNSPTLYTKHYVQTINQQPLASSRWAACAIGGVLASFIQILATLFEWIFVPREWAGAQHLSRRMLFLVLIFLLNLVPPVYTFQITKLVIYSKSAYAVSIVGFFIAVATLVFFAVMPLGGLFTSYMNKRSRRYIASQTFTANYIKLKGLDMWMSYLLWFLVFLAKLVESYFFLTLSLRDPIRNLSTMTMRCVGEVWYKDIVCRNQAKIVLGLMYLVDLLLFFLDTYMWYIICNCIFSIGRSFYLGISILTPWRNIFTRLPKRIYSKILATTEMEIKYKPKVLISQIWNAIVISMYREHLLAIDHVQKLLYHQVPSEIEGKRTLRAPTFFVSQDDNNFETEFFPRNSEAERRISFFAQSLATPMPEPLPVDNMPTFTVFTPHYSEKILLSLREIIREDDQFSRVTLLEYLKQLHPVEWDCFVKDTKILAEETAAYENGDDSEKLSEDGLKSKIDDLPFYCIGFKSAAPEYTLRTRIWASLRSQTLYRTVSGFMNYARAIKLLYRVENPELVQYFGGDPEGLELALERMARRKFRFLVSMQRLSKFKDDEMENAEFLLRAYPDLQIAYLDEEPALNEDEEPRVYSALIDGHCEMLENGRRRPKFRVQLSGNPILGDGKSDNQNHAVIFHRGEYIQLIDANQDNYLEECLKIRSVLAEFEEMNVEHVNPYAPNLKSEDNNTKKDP

Candida albicans [1] = test: Antifungal activity against Candida albicans MY1055 after 24 hrs by liquid microdilution assay; format: functional; conditions: MY1055, 24 h
Aspergillus fumigatus = test: Antifungal activity against Aspergillus fumigatus MF5668 after 24 hrs by liquid microdilution assay; format: functional; conditions: MF5668, 24 h, read-out: MEC
Candida albicans [2] = test: Antifungal activity against Candida albicans MY1055 after 24 hrs by liquid microdilution assay in presence of human serum; format: functional; conditions: MY1055, 24 h
Mus musculus [3] = test: Dose normalized AUC in orally dosed mouse; format: ADME, organism-based; conditions: in vivo, po
[4] = Oral bioavailability in mouse; format: ADME, organism-based; conditions: in vivo
Candida albicans [5] = test: Antifungal activity against Candida albicans MY1055 in DBA/2 mouse candidiasis model assessed as change in CFU per gram of kidney at 25 mg/kg, ip bid after 4 days by Target Organ Kidney Assay relative to sham treated control; format: functional
Candida albicans [6] = test: Antifungal activity against Candida albicans MY1055 in DBA/2 mouse candidiasis model assessed as change in CFU per gram of kidney at 12.5 mg/kg, ip bid after 4 days by Target Organ Kidney Assay relative to sham treated control; format: functional
Candida albicans [7] = test: Antifungal activity against Candida albicans MY1055 in DBA/2 mouse candidiasis model assessed as change in CFU per gram of kidney at 6.25 mg/kg, ip bid after 4 days by Target Organ Kidney Assay relative to sham treated control; format: functional
Candida albicans [8] = test: Antifungal activity against Candida albicans MY1055 in DBA/2 mouse candidiasis model assessed as change in CFU per gram of kidney at 25 mg/kg, po bid after 4 days by Target Organ Kidney Assay relative to sham treated control; format: functional
Candida albicans [9] = test: Antifungal activity against Candida albicans MY1055 in DBA/2 mouse candidiasis model assessed as change in CFU per gram of kidney at 12.5 mg/kg, po bid after 4 days by Target Organ Kidney Assay relative to sham treated control; format: functional
Candida albicans [10] = test: Antifungal activity against Candida albicans MY1055 in DBA/2 mouse candidiasis model assessed as change in CFU per gram of kidney at 6.25 mg/kg, po bid after 4 days by Target Organ Kidney Assay relative to sham treated control; format: functional
Candida albicans [11] = test: Antifungal activity against Candida albicans MY1055 in DBA/2 mouse candidiasis model assessed as change in CFU per gram of kidney at 12.5 mg/kg, ip bid after 7 days by Target Organ Kidney Assay relative to sham treated control; format: functional
Candida albicans [12] = test: Antifungal activity against Candida albicans MY1055 in DBA/2 mouse candidiasis model assessed as change in CFU per gram of kidney at 25 mg/kg, po bid after 7 days by Target Organ Kidney Assay relative to sham treated control; format: functional
Candida albicans [13] = test: Antifungal activity against Candida albicans MY1055 in DBA/2 mouse candidiasis model assessed as change in CFU per gram of kidney at 12.5 mg/kg, po bid after 7 days by Target Organ Kidney Assay relative to sham treated control; format: functional
Candida albicans [14] = test: Antifungal activity against Candida albicans MY1055 in DBA/2 mouse candidiasis model assessed as change in CFU per gram of kidney at 6.25 mg/kg, po bid after 7 days by Target Organ Kidney Assay relative to sham treated control; format: functional
Candida albicans [15] = test: Antifungal activity against Candida albicans MY1055 in DBA/2N mouse candidiasis model assessed as mouse survival at 12.5 mg/kg, ip bid after 7 days by Target Organ Kidney Assay relative to sham treated control; format: functional; conditions: 168 h
Candida albicans [16] = test: Antifungal activity against Candida albicans MY1055 in DBA/2N mouse candidiasis model assessed as mouse survival at 25 mg/kg, po bid after 7 days by Target Organ Kidney Assay relative to sham treated control; format: functional; conditions: 168 h
Candida albicans [17] = test: Antifungal activity against Candida albicans MY1055 in DBA/2N mouse candidiasis model assessed as mouse survival at 12.5 mg/kg, po bid after 7 days by Target Organ Kidney Assay relative to sham treated control; format: functional; conditions: 168 h
Candida albicans [18] = test: Antifungal activity against Candida albicans MY1055 in DBA/2N mouse candidiasis model assessed as mouse survival at 6.25 mg/kg, po bid after 4 days by Target Organ Kidney Assay relative to sham treated control; format: functional; conditions: 96 h
Candida albicans [19] = test: Antifungal activity against Candida albicans MY1055 in DBA/2N mouse candidiasis model assessed as reduction of fungal burden after 7 days; format: functional; conditions: MY1055, 168 h
[20] = AUC (0 to 24 hrs) in DBA/2J mouse at 10 mg/kg, po; format: ADME, organism-based; parameters: dose 10 mg/kg, time < 24 hr, route oral; conditions: in vivo
Mus musculus [21] = test: AUC (0 to 24 hrs) in DBA/2J mouse assessed as metabolite 13e at 10 mg/kg, po; format: ADME, organism-based; parameters: dose 10 mg/kg, time < 24 hr, route oral; conditions: in vivo
Mus musculus [22] = test: AUC (0 to 24 hrs) in DBA/2J mouse assessed as metabolite 13c at 10 mg/kg, po; format: ADME, organism-based; parameters: dose 10 mg/kg, time < 24 hr, route oral; conditions: in vivo
Mus musculus [23] = test: AUC (0 to 24 hrs) in DBA/2J mouse assessed as total metabolites at 10 mg/kg, po; format: ADME, organism-based; conditions: in vivo
Rattus norvegicus = test: Dose normalized AUC in orally dosed rat; format: ADME, organism-based; conditions: in vivo, po
[24] = Oral bioavailability in rat; format: ADME, organism-based; conditions: in vivo

IC50 (Beta-1,3-glucan synthase): 81.9 nM
MIC (Candida albicans [1]): 1 µg/mL (≈ 1.74 µM)
MIC (Candida albicans [2]): 32 µg/mL
AUC/dose (Mus musculus [3]): 0.54 µM·kg·h/mg
bioavailability [4]: 24%
Compound: CC(=O)O[C@@H]1C[C@@]23COCC(C)([C@H]1OCCN)[C@@H]2CC[C@H]1C3=CC[C@@]2(C)[C@H](C(=O)O)[C@@](C)([C@H](C)C(C)C)CC[C@]12C
minimal effective concentration (Aspergillus fumigatus): < 0.03 µg/mL
Activity (Candida albicans [5]): -0.7 deltalog10CFU
Activity (Candida albicans [6]): -0.4 deltalog10CFU
Activity (Candida albicans [7]): -0.3 deltalog10CFU

Compound: CC(C)[C@@H](C)[C@@]1(C)CC[C@]2(C)[C@H]3CC[C@H]4C5(C)COC[C@@]4(C[C@@H](n4nnc(N)n4)[C@@H]5OC[C@@](C)(C(C)C)N(C)C)C3=CC[C@@]2(C)[C@@H]1C(=O)O
IC50 (Beta-1,3-glucan synthase): 13.2 nM
MIC (Candida albicans [1]): 0.25 µg/mL (≈ 0.366 µM)
minimal effective concentration (Aspergillus fumigatus): < 0.03 µg/mL
MIC (Candida albicans [2]): 8 µg/mL
AUC/dose (Mus musculus [3]): 0.15 µM·kg·h/mg
bioavailability [4]: 17%
Activity (Candida albicans [8]): -2.6 deltalog10CFU
Activity (Candida albicans [9]): -2.5 deltalog10CFU
Activity (Candida albicans [10]): -0.7 deltalog10CFU
Activity (Candida albicans [11]): -3.36 deltalog10CFU
Activity (Candida albicans [12]): -2.75 deltalog10CFU
Activity (Candida albicans [13]): -2.38 deltalog10CFU
Activity (Candida albicans [14]): -1.19 deltalog10CFU
survival at 12.5 mg/kg (Candida albicans [15]): 100%
survival at 25 mg/kg (Candida albicans [16]): 100%
survival at 12.5 mg/kg (Candida albicans [17]): 100%
survival at 6.25 mg/kg (Candida albicans [18]): 40%
ED99 (Candida albicans [19]): 9 mg/kg
AUC(0-t) at 24 h [20]: 1.27 µM·h
AUC (Mus musculus [21]): 1.23 µM·h
AUC (Mus musculus [22]): 0.11 µM·h
Drug uptake (Mus musculus [23]): 51.3%

IC50 (Beta-1,3-glucan synthase): 86.6 nM
MIC (Candida albicans [1]): 0.25 µg/mL (≈ 0.361 µM)
MIC (Candida albicans [2]): 8 µg/mL
AUC/dose (Rattus norvegicus): 0.01 µM·kg·h/mg
bioavailability [24]: 1%
Compound: CC(=O)O[C@@H]1C[C@@]23COCC(C)([C@H]1O[C@@H]1O[C@H](CO)[C@@H](O)[C@H](O)[C@H]1O)[C@@H]2CC[C@H]1C3=CC[C@@]2(C)[C@H](C(=O)O)[C@@](C)([C@H](C)C(C)C)CC[C@]12C
minimal effective concentration (Aspergillus fumigatus): < 0.03 µg/mL
